In general, IC90 refers to the concentration needed for an effect of 90%. A word on the IC50: it is the concentration that gives 50% inhibition. High values mean lower potency, low ones higher potency.

The results in this text go back to ChEMBL document CHEMBL1150438, “Benzimidazole ribonucleosides: Observation of an unexpected nitration when performing non-aqueous diazotizations with t-butyl nitrite” (Bioorg Med Chem Lett, 1992).

Test [1] has as its system Human betaherpesvirus 5. Kind of test: Compound was tested for antiviral activity against human cytomegalovirus (HCMV) yield reduction assay. The class given is functional.
The test system of the next test is HFF. Nature of the test: Cytotoxicity against human foreskin fibroblasts (HFF) cells. The class given is functional, cell-based.
For another test, the system named is Human alphaherpesvirus 1. Nature of the test: Compound was tested for antiviral activity against HSV-1. The class given is functional, organism-based.
The subject of test [2] is Human betaherpesvirus 5. Nature of the test: Compound was tested for antiviral activity against human cytomegalovirus (HCMV) plaque reduction assay. In kind it is functional, organism-based. On the technique in general: Plaques are areas of infected cells; plaque reduction assays count them against a control.

`OC[C@H]1OC(n2c(I)nc3cc(Cl)c(Cl)cc32)[C@H](O)[C@@H]1O` (some centres not stated) had an IC90 in the test on Human betaherpesvirus 5 [1] of 26 µM. In the test on HFF, the IC50 came to 127 µM.
Regarding `OC[C@H]1OC(n2c(O)nc3cc(Cl)c(Cl)cc32)[C@H](O)[C@@H]1O` (some centres not stated), the concentration for half-maximal inhibition (IC50) in the test with Human alphaherpesvirus 1 and in the test on Human betaherpesvirus 5 [2] was over 100 µM each time.
`Nc1nc2c(ncn2COC(CO)CO)c(=O)[nH]1` [GANCICLOVIR]: it took 2 µM to reach the 90% level in the test on Human betaherpesvirus 5 [1] (IC90). Also, the IC50 in the test with HFF was over 100 µM.
With `O=[N+]([O-])c1c(Cl)c(Cl)cc2c1nc(O)n2C1O[C@H](CO)[C@@H](O)[C@H]1O` (some centres not stated), the IC50 in the test with Human alphaherpesvirus 1 and with Human betaherpesvirus 5 [2] was over 100 µM each time.
`Nc1c(Cl)c(Cl)cc2c1nc(O)n2C1O[C@H](CO)[C@@H](O)[C@H]1O` (some centres not stated): the IC50 with Human alphaherpesvirus 1, with HFF and in the test on Human betaherpesvirus 5 [2] was over 100 µM in each case.
In the test on Human betaherpesvirus 5 [1], `OC[C@H]1O[C@@H](n2cnc3cc(Cl)c(Cl)cc32)[C@H](O)[C@@H]1O` [DICHLORORIBOBENZIMIDAZOLE] yielded an IC90 of 19 µM.
